According to PMC7346717 (Nature structural & molecular biology, 2018):

Legend:
[1] = target: T1, ΔN-drSLC38A9 (ΔN-SLC38A9) (Danio rerio, UniProt Q08BA4, N227Q/N235Q/N252Q/N263Q); test: proteoliposome radioligand uptake; type: biochemical; details: 0.5 μM [3H]L-arginine, labelled compound; NaCl, MES pH 5.0
T1 sequence (Q08BA4 71-549 N227Q/N235Q/N252Q/N263Q): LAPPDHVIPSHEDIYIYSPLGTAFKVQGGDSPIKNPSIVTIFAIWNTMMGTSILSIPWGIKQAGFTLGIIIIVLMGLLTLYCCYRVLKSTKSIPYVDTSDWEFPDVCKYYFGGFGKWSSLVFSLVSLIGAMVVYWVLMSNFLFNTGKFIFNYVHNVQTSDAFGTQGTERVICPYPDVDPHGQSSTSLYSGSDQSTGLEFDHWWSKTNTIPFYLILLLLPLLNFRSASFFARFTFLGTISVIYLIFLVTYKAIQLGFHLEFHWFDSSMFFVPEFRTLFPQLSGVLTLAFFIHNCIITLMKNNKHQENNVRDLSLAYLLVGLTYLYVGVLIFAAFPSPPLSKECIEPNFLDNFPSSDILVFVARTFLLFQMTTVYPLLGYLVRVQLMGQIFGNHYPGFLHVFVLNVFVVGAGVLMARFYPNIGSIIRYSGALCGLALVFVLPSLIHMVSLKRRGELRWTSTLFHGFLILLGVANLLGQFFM

[2] = target: T2, drSLC38A9 (full-length, wild-type) (Danio rerio, UniProt Q08BA4); test: proteoliposome radioligand uptake; type: biochemical; details: 0.5 μM [3H]L-arginine, labelled compound; Na+ (not K+ or NMG), pH 5.0
T2 sequence (Q08BA4 1-549): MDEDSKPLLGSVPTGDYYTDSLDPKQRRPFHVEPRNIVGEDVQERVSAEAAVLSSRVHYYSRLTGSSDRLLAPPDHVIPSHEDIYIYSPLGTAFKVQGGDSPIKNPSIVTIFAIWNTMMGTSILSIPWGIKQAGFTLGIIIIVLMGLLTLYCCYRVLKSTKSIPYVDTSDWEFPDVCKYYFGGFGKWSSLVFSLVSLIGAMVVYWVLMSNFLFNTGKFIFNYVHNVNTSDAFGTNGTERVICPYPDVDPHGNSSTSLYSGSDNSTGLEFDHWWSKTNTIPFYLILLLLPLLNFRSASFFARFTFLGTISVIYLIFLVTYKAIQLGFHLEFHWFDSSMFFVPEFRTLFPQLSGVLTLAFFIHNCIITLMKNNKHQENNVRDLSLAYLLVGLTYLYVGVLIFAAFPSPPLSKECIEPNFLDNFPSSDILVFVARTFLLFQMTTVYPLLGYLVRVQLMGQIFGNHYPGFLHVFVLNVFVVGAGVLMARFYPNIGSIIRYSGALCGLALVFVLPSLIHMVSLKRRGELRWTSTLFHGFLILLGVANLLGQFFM

In the case of `N=C(N)NCCC[C@H](N)C(=O)O` [arginine], the proteoliposome radioligand uptake [1] is reported as “the truncated drSLC38A9 protein is active and able to bind arginine similarly to the wild-type” and the proteoliposome radioligand uptake [2] is reported as “robust uptake was observed in the presence of sodium”.
